From ChEMBL document CHEMBL1153846, “QSAR studies for diarylpyrimidines against HIV-1 reverse transcriptase wild-type and mutant strains” (Eur J Med Chem, 2009) come the findings set out here.

In data set [1] the target is Human immunodeficiency virus type 1 reverse transcriptase (Human immunodeficiency virus 1) (UniProt Q72547). Nature of the data set: Inhibition of HIV1 wild type reverse transcriptase.
Data set [2] in a line: Hydrophobic index, Log P of the compound. The format is physicochemical. To be noted: octanol/water.
Data set [3] relates to Human immunodeficiency virus type 1 reverse transcriptase (Human immunodeficiency virus 1), Q72547 [[…]]. Briefly: Inhibition of HIV1 reverse transcriptase Y188L mutant.
Data set [4] concerns Human immunodeficiency virus type 1 reverse transcriptase (Human immunodeficiency virus 1), Q72547 [L100I]. Nature of the data set: Inhibition of HIV1 reverse transcriptase L100I mutant.
For data set [5], the system named is Human immunodeficiency virus type 1 reverse transcriptase (Human immunodeficiency virus 1), Q72547 [Y181C]. Nature of the data set: Inhibition of HIV1 reverse transcriptase Y181C mutant.

For orientation: logP means the decadic logarithm of the partition coefficient of the neutral form, usually between octanol and water. With `Cc1cnc(Nc2ccc(C#N)cc2)nc1Nc1c(C)cc(C#N)cc1C`, the log(1/C) worked out at 9.1 in data set [1], 7.8 in data set [3], 7.8 in data set [4] and 7.92 in data set [5]. Further, the logP in data set [2] (read-out: logP) was 1.49.
Regarding `Cc1cc(C#N)cc(C)c1Nc1nc(Nc2ccc(C#N)cc2)ncc1Br`, the log(1/C) in data set [1] is 9.4; in data set [3], 8.48; in data set [4], 8.15; in data set [5] it was 8.02. Besides, in data set [2] (read-out: logP), the logP was 1.39.
Turning to `C#Cc1cc(C)c(Oc2ccnc(Nc3ccc(C#N)cc3)n2)c(C)c1`, the log(1/C) in data set [1] came to 8.26; in data set [3], 7.3; in data set [4], 6.73; in data set [5], 6.77. Besides, the logP in data set [2] (read-out: logP) was determined as 1.53.
Regarding `Cc1cc(C#N)cc(C)c1Nc1nc(Nc2ccc(C#N)cc2)nc(NO)c1Br`, the values for the log(1/C) in data set [1], in data set [4] and in data set [5] were 8.4, 8.92 and 7.92, respectively. In data set [2] (read-out: logP), the logP worked out at 2.18.
Regarding `N#Cc1ccc(Nc2nccc(Nc3c(Br)cc(F)cc3Br)n2)cc1`, the log(1/C) in data set [1] is 9.22; in data set [3] it was 7.19; in data set [4] it was 7.82; in data set [5], 7.82. The logP in data set [2] (read-out: logP) came to 0.68.
Consider `Cc1cc(C#N)cc(C)c1Nc1nc(Nc2ccc(C#N)cc2)nc(CO)c1Br`, for which the log(1/C) turned out to be 8.4 in data set [1], 8.22 in data set [3], 8.7 in data set [4] and 8.22 in data set [5]. For the same compound, the logP in data set [2] (read-out: logP) came to 0.81.
Turning to `Cc1cc(C#N)cc(C)c1Oc1ccnc(Nc2ccc(C#N)cc2)n1`, the log(1/C) in data set [1] is 8.96; in data set [3], 7.72; in data set [4], 7.14; in data set [5] it was 7.43. For the same compound, the logP in data set [2] (read-out: logP) was found to be 1.39.
Take `C#Cc1cnc(Nc2ccc(C#N)cc2)nc1Nc1c(C)cc(C)cc1C`: the logP in data set [2] (read-out: logP) came out at 1.63.
`Cc1cc(C)c(Nc2nc(Nc3ccc(C#N)cc3)ncc2-c2ccccc2)c(C)c1` yielded a log(1/C) in data set [1] of 7.62. For the same compound, in data set [2] (read-out: logP), the logP was 3.14.
`CC(=O)Nc1cnc(Nc2ccc(C#N)cc2)nc1Oc1c(C)cc(C#N)cc1C`: the logP in data set [2] (read-out: logP) was -0.38.
For `C=Cc1cnc(Nc2ccc(C#N)cc2)nc1Nc1c(C)cc(C)cc1C`, the log(1/C) in data set [1] was 8.6; in data set [3], 7.54; in data set [4], 7.46; in data set [5] it was 7.44. In data set [2] (read-out: logP), the log partition coefficient (logP) was determined as 2.1.
Regarding `Cc1cc(C)c(Nc2nc(Nc3ccc(C#N)cc3)ncc2C)c(C)c1`, the log(1/C) was 8.77 in data set [1], 7.74 in data set [3], 7.92 in data set [4] and 7.92 in data set [5]. Further, the logP in data set [2] (read-out: logP) is 1.92.
Take `Cc1cc(C)c(Oc2ccnc(Nc3ccc(C#N)cc3)n2)c(C)c1`: the log(1/C) amounted to 8.54 in data set [1], 7.26 in data set [3], 7.66 in data set [4] and 7.42 in data set [5]. For the same compound, the lipophilicity (logP) in data set [2] (read-out: logP) was determined as 1.82.
On to `Cc1cc(Br)c(Nc2ccnc(Nc3ccc(C#N)cc3)n2)c(Br)c1`, for which the log(1/C) in data set [1] worked out at 9.15; in data set [4], 8.52; in data set [5], 8.47. In addition, the logP in data set [2] (read-out: logP) came out at 1.44.
For `Cc1cc(C)c(Sc2ccnc(Nc3ccc(C#N)cc3)n2)c(C)c1`, the log(1/C) turned out to be 8.44 in data set [1], 7.7 in data set [3], 7.27 in data set [4] and 7.6 in data set [5]. Further, the logP in data set [2] (read-out: logP) came to 2.16.
Consider `Cc1cc(Cl)cc(C)c1Nc1ccnc(Nc2ccc(C#N)cc2)n1`, for which the log(1/C) in data set [1] is 8.68; in data set [3], 6.94; in data set [4] it was 6.49; in data set [5], 7.72. In data set [2] (read-out: logP), the logP turned out to be 1.27.
For `Cc1cc(C#N)cc(C)c1Oc1nc(Nc2ccc(C#N)cc2)ncc1N` the same measures were 9, 8.24, 7.8, 8.03 and -0.21.
For `Cc1cc(Br)cc(C)c1Nc1ccnc(Nc2ccc(C#N)cc2)n1`, the log(1/C) was found to be 8.64 in data set [1], 7.16 in data set [3], 7.12 in data set [4] and 7.77 in data set [5]. Also, in data set [2] (read-out: logP), the logP was found to be 1.54.
For the compound `Cc1cc(C)c(Nc2nc(Nc3ccc(C#N)cc3)ncc2C#N)c(C)c1`, the log(1/C) in data set [1] was found to be 9; in data set [3] it was 7.11; in data set [4], 7.2; in data set [5] it was 7.4. Further, the logP in data set [2] (read-out: logP) was 1.49.
For the compound `Cc1cc(C#N)cc(C)c1Oc1nc(Nc2ccc(C#N)cc2)ncc1[N+](=O)[O-]`, the log(1/C) in data set [1] is 7.74; in data set [3], 6.11; in data set [4], 6.92; in data set [5], 6.52. This compound also showed a logP in data set [2] of 0.7.
On to `Cc1cc(Cl)cc(Cl)c1Nc1ccnc(Nc2ccc(C#N)cc2)n1`, for which the log(1/C) stood at 9 in data set [1], 7.07 in data set [3], 7.22 in data set [4] and 7.74 in data set [5]. The logP in data set [2] (read-out: logP) came out at 0.89.
`Cc1cc(C)c(Oc2nc(Nc3ccc(C#N)cc3)ncc2Br)c(C)c1`: the log(1/C) came to 8.26 in data set [1], 7.57 in data set [3], 7.96 in data set [4] and 7.44 in data set [5]. For the same compound, the logP in data set [2] (read-out: logP) worked out at 1.82.
As to `Cc1cc(C)c(Nc2nc(Nc3ccc(C#N)cc3)ncc2Cl)c(C)c1`, the log(1/C) in data set [1] is 8.57; in data set [3], 7.47; in data set [4] it was 7.77; in data set [5], 7.49. Also, the lipophilicity (logP) in data set [2] (read-out: logP) is 1.72.
Taken in the same sequence, the figures for `Cc1cc(C)c(Nc2ccnc(Nc3ccc(C#N)cc3)n2)c(C)c1` [DAPIVIRINE] were 9, 7.32, 7.74, 8.12 and 1.64.
Turning to `Cc1cccc(C)c1Nc1ccnc(Nc2ccc(C#N)cc2)n1`, the log(1/C) in data set [1] turned out to be 9.15; in data set [3] it was 6.59; in data set [4], 6.67; in data set [5], 7.21. In data set [2] (read-out: logP), the logP was found to be 1.49.
Take `Cc1cc(C#N)cc(C)c1Oc1nc(Nc2ccc(C#N)cc2)ncc1Cl`: the log(1/C) is 8.85 in data set [1], 8.32 in data set [3], 8.12 in data set [4] and 7.47 in data set [5]. For the same compound, in data set [2] (read-out: logP), the logP amounted to 1.29.
For `Cc1cc(C#N)cc(C)c1Nc1ccnc(Nc2ccc(C#N)cc2)n1` the same measures were 9.4, 8.11, 7.47, 8.15 and 1.21.
`Cc1cc(C#N)cc(C)c1Oc1nc(Nc2ccc(C#N)cc2)nc(N)c1Br` [ETRAVIRINE]: the log(1/C) in data set [1] came out at 8.85; in data set [3], 8.34; in data set [4], 8.48; in data set [5] it was 8.15. Further, the logP in data set [2] (read-out: logP) is 1.54.
In the case of `Cc1cc(C#N)cc(C)c1Nc1nc(Nc2ccc(C#N)cc2)ncc1C#N`, the log(1/C) in data set [1] is 9.3; in data set [3], 8.07; in data set [4] it was 7.04; in data set [5] it was 7.12. In addition, in data set [2] (read-out: logP), the logP worked out at 1.06.
On to `Cc1cc(Br)cc(C)c1Oc1ccnc(Nc2ccc(C#N)cc2)n1`, for which the log(1/C) in data set [1] worked out at 8.54; in data set [3] it was 7.1; in data set [4], 6.95; in data set [5] it was 7.23. Moreover, the logP in data set [2] (read-out: logP) stood at 1.72.
Take `N#Cc1ccc(Nc2nccc(Nc3c(Cl)cc(Cl)cc3Cl)n2)cc1`: the log(1/C) amounted to 9.15 in data set [1], 7 in data set [3], 7.85 in data set [4] and 8 in data set [5]. For the same compound, the logP in data set [2] (read-out: logP) was 0.51.
In the case of `Cc1cc(C#N)cc(C)c1Nc1nc(Nc2ccc(C#N)cc2)ncc1Cl`, the log(1/C) in data set [1] stood at 8.92; in data set [3] it was 8.33; in data set [4], 8.28; in data set [5], 7.85. Also, the logP in data set [2] (read-out: logP) is 1.11.
As to `Cc1cc(C#N)cc(C)c1Sc1ccnc(Nc2ccc(C#N)cc2)n1`, the log(1/C) in data set [1] was 8.24; in data set [3] it was 7.36; in data set [4], 6.76; in data set [5] it was 7.17. Further, in data set [2] (read-out: logP), the logP came to 2.06.
